Measurements as given in US20110190227A1, “Antagonists of Prostaglandin D2 Receptors” (Amira Pharmaceuticals, Inc., priority 2008, published 2011).

What was measured:
[1] = target: T1, human DP2 receptor (Homo sapiens, UniProt Q9Y5Y4); test: DP2/CRTH2 radioligand binding assay ([3H]PGD2); details: membranes of HEK293 cells expressing recombinant human DP2, 1 nM [3H]PGD2; read-out: hDP2
T1 construct: expressed in transfected cells
T1 sequence (Q9Y5Y4 1-395): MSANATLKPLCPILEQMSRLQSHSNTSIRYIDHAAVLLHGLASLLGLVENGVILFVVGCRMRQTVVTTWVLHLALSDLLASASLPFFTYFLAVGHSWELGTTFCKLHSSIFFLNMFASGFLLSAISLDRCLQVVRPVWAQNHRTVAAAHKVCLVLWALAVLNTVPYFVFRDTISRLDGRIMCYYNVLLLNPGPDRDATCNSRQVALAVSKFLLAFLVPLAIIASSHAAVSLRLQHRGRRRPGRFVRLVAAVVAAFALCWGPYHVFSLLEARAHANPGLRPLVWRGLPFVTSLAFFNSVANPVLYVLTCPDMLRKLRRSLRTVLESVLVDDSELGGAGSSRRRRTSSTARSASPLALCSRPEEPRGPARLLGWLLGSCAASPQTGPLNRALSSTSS
Protocol: The ability of a compound to bind to the human DP2 receptor is assessed via a radioligand binding assay using [^3H]PGD2. HEK293 cells stably expressing recombinant human DP2 are resuspended in 10 mM Hepes, 7.4 containing 1 mM DTT, lysed and centrifuged at 75,000×g to pellet the membranes. The membranes are resuspended in 10 mM Hepes, 7.4 containing 1 mM DTF and 10% glycerol to approximately 5 mg protein/ml. Membranes (2-10 […]) are incubated in 96-well plates with 1 nM [^3H]PGD2 and test compound in Assay Buffer (50 mM Hepes, 10 mM MnCl2, 1 mM EDTA, plus or minus 0.2% human serum albumin, pH 7.4) for 60 minutes at room temperature. The reactions are terminated by rapid filtration through Whatman GF/C glass fibre filter plates. The filter plates were pre-soaked in 0.33% polythylenimine for 30 minutes at room temperature then washed in Wash Buffer (50 mM Hepes, 0.5 M NaCl pH 7.4) prior to harvesting. After harvesting, the filter plates are washed 3 times with 1 ml cold Wash Buffer then dried. Scintillant is then added to the plates and the radioactivity retained on the filters is determined on a Packard TopCount (Perkin Elmer). Specific binding is determined as total radioactive binding minus non-specific binding in the presence of 10 μM PGD2. IC50s were determined using GraphPad prism analysis of drug titration curves.

[2] = target: T2, human DP1 receptor (Homo sapiens, UniProt Q13258); test: DP1 radioligand membrane binding assay ([3H]BWA868C); details: human platelet membranes, 2 nM [3H]BWA868C; read-out: hDP1
T2 construct: tissue Biological Specialty Corporation; host or cells: human platelets, membrane preparation
T2 sequence (Q13258 1-359): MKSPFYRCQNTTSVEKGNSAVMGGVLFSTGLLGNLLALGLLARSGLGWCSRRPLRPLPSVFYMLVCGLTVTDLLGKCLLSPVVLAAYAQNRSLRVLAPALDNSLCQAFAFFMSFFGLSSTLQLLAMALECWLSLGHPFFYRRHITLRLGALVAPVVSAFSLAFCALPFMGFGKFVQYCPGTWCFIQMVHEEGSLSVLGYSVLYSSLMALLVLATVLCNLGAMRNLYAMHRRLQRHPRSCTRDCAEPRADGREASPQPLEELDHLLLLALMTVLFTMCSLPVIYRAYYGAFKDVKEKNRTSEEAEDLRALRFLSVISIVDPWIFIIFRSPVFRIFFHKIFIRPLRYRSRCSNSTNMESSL
Protocol: The ability of a compound to bind to the human DP1 receptor was evaluated via a radioligand membrane binding assay using the DP1 selective synthetic ligand [^3H]BWA868C. Packed human platelets (Biological Specialty Corporation), were resuspended in 6 volumes of Hepes/HBSS buffer (10 mM Hepes, 1 mM DTT in Hanks Balanced Salt Solution (HBSS), lysed and centrifuged at 75,000×g to pellet the membranes. Membranes were resuspended in Hepes/HBSS buffer to approximately 12 mg protein/ml. Membranes (20 μg protein/well) are incubated in 96-well plates with 2 nM [^3H]BWA868C and test compound in Assay Buffer (50 mM Hepes, 10 mM MnCl2, 1 mM EDTA, plus or minus 0.2% human serum albumin, pH 7.4) for 60 minutes at room temperature. The reactions are terminated by rapid filtration through Whatman GF/C glass fibre filter plates. The filter plates were pre-soaked in 0.33% polyethylenimine for 30 minutes at room temperature then washed in Wash Buffer (50 mM Hepes, 0.5 M NaCl pH 7.4) prior to harvesting. After harvesting, the filter plates are washed 3 times with 1 ml cold Wash Buffer then dried. Scintillant is then added to the plates and the radioactivity retained on the filters is determined on a Packard TopCount (Perkin Elmer). Specific binding is determined as total radioactive binding minus non-specific binding in the presence of 10 μM BW A868C. IC50s were determined using GraphPad prism analysis of drug titration curves.

| Structure (SMILES) | IC50 [1] | IC50 [2] |
| --- | --- | --- |
| O=C(O)Cc1cccc(Oc2ccc(Br)cc2CS(=O)(=O)c2ccc3ccccc3n2)c1 [Compound 1-24, {3-[4-Bromo-2-(quinoline-2-sulfonylmethyl)-phenoxy]-phenyl}-acetic acid] | > 1000 nM | > 1000 nM |
| COc1ccc(CC(=O)O)cc1Oc1ccc(Cl)cc1C[S+]([O-])Cc1ccccc1 (stereo not drawn) [Compound 1-55, [3-(4-Chloro-2-phenylmethanesulfinylmethyl-phenoxy)-4-methoxyphenyl]-acetic acid] | 300 to 1000 nM | > 1000 nM |
| O=C(O)Cc1cccc(Oc2ccc(Br)cc2CSCc2ccccc2)c1 [Compound 1-12, [3-(2-Benzylsulfanylmethyl-4-bromo-phenoxy)-phenyl]-acetic acid] | < 300 nM | < 300 nM |
| O=C(O)Cc1cccc(Oc2ccc(Br)cc2CS(=O)(=O)c2ccccc2)c1 [Compound 1-20, [3-(2-Benzenesulfonylmethyl-4-bromo-phenoxy)-phenyl]-acetic acid] | < 300 nM | > 1000 nM |
| Cc1nnc(S(=O)(=O)Cc2cc(Br)ccc2Oc2cccc(CC(=O)O)c2)s1 [Compound 1-26, {3-[4-Bromo-2-(5-methyl-[1,3,4]thiadiazole-2-sulfonylmethyl)-phenoxy]-phenyl}-acetic acid] | < 300 nM | > 1000 nM |
| O=C(O)CSCc1cc(Br)ccc1Oc1cccc(CC(=O)O)c1 [Compound 1-19, [3-(4-Bromo-2-carboxymethylsulfanylmethyl-phenoxy)-phenyl]-acetic acid] | > 1000 nM | > 1000 nM |
| O=C(O)Cc1cccc(Oc2ccc(Br)cc2CSc2ccccn2)c1 [Compound 1-17, {3-[4-Bromo-2-(pyridin-2-ylsulfanylmethyl)-phenoxy]-phenyl}-acetic acid] | 300 to 1000 nM | 300 to 1000 nM |
| CN(C)CCS(=O)(=O)Cc1cc(Br)ccc1Oc1cccc(CC(=O)O)c1 [Compound 1-27, {3-[4-Bromo-2-(2-dimethylamino-ethanesulfonylmethyl)-phenoxy]-phenyl}-acetic acid] | < 300 nM | > 1000 nM |
| O=C(O)Cc1cccc(Oc2ccc(Br)cc2C[S+]([O-])CC(=O)O)c1 (stereo not drawn) [Compound 1-36, [3-(4-Bromo-2-carboxymethanesulfinylmethyl-phenoxy)-phenyl]-acetic acid] | > 1000 nM | > 1000 nM |
| COc1ccc(CC(=O)O)cc1Oc1ccc(C(F)(F)F)cc1CS(=O)(=O)CCc1ccccc1 [Compound 1-5, {4-Methoxy-3-[2-(2-phenyl-ethanesulfonylmethyl)-4-trifluoromethyl-phenoxy]-phenyl}-acetic acid] | < 300 nM | > 1000 nM |

More lines, now with the values ahead:

| IC50 [1] | IC50 [2] | Structure (SMILES) |
| --- | --- | --- |
| < 300 nM | 300 to 1000 nM | O=C(O)Cc1cccc(Oc2ccc(Br)cc2CS(=O)(=O)Cc2ccccc2)c1 [Compound 1-21, [3-(4-Bromo-2-phenylmethanesulfonylmethyl-phenoxy)-phenyl]-acetic acid] |
| < 300 nM | > 1000 nM | O=C(O)Cc1cccc(Oc2ccc(Br)cc2C[S+]([O-])Cc2ccccc2)c1 (stereo not drawn) [Compound 1-29, [3-(4-Bromo-2-phenylmethanesulfinylmethyl-phenoxy)-phenyl]-acetic acid] |
| < 300 nM | > 1000 nM | COc1ccc(CC(=O)O)cc1Oc1ccc(C(F)(F)F)cc1CSCCc1ccccc1 [Compound 1-1, [4-Methoxy-3-(2-phenethylsulfanylmethyl-4-trifluoromethyl-phenoxy)-phenyl]-acetic acid] |
| < 300 nM | 300 to 1000 nM | O=C(O)Cc1cccc(Oc2ccc(Br)cc2CSc2nccs2)c1 [Compound 1-14, {3-[4-Bromo-2-(thiazol-2-ylsulfanylmethyl)-phenoxy]-phenyl}-acetic acid] |
| < 300 nM | < 300 nM | O=C(O)Cc1cccc(Oc2ccc(Br)cc2CSCCc2ccccc2)c1 [Compound 1-13, [3-(4-Bromo-2-phenethylsulfanylmethyl-phenoxy)-phenyl]-acetic acid] |
